Experimental data from ChEMBL document CHEMBL1926545, “The 2,11-cyclized cembranoids: cladiellins, asbestinins, and briarellins (period 1998-2010)” (J Nat Prod, 2011).
pIC50: −log10 of the molar value. Calls of active or inactive are those of the source. The calls are words filed in the database; no cut-off is given here.

Tests used:
[1] = test system: Ca9-22; assay: Cytotoxicity against human Ca9-22 cells; assay type: functional, cell-based; details: for IC50: ca9-22; for pIC50: Homo sapiens, Ca9-22, read-out: IC50
[2] = test system: MCF7; assay: Cytotoxicity against human MCF7 cells; assay type: functional, cell-based; details: for IC50: mcf7; for pIC50: Homo sapiens, MCF7, read-out: IC50
[3] = test system: HepG2; assay: Cytotoxicity against human HepG2 cells; assay type: functional, cell-based; details: for IC50: hepg2; for pIC50: Homo sapiens, HepG2, read-out: IC50
[4] = Cytotoxicity against human Hep3B cells; assay type: functional, cell-based, Hep 3B2; details: for IC50: hep 3b2; for pIC50: Homo sapiens, Hep3B, read-out: IC50
[5] = test system: A549; assay: Cytotoxicity against human A549 cells; assay type: functional, cell-based; details: for IC50: a549; for pIC50: Homo sapiens, A549, read-out: IC50
[6] = test system: MDA-MB-231; assay: Cytotoxicity against human MDA-MB-231 cells; assay type: functional, cell-based; details: for IC50: mda-mb-231; for pIC50: Homo sapiens, MDA-MB-231, read-out: IC50
[7] = test system: RAW264.7; assay: Antiinflammatory activity in […] RAW264.7 cells assessed as LPS-induced iNOS expression at 10 uM; assay type: functional
[8] = test system: RAW264.7; assay: Antiinflammatory activity in […] RAW264.7 cells assessed as LPS-induced COX-2 expression at 10 uM; assay type: functional
[9] = Cytostatic activity against human NSCLC-N6 cells; assay type: functional, cell-based
[10] = test system: L1210; assay: Cytotoxicity against mouse L1210 cells; assay type: functional, cell-based

| Compound | IC50 [1] | IC50 [2] | IC50 [3] | IC50 [4] | IC50 [5] | IC50 [6] | other results |
| --- | --- | --- | --- | --- | --- | --- | --- |
| CCCC(=O)O[C@]1(C)CC[C@H](O)[C@@](C)(O)C[C@H]2O[C@@H]1[C@@H]1[C@@H](C(C)C)[C@H](O)C[C@@](C)(OC(C)=O)[C@@H]12 [KLYSIMPLEXIN F] | Not Active | Not Active | Not Active | Not Active | Not Active | Not Active |  |
| C=C1C[C@H]2O[C@H]([C@@H]3[C@@H](C(C)C)[C@H](OC(=O)CC[S+](C)[O-])[C@@H](OC(C)=O)[C@@](C)(O)[C@@H]32)[C@](C)(OC(=O)CCC)CC[C@@H]1O (stereo partly drawn) [KLYSIMPLEXIN SULFOXIDE C] |  |  |  |  |  |  | Activity [7]: 11%; Activity [8]: 7.2% |
| CCCC(=O)O[C@H]1[C@H](C(C)C)[C@@H]2[C@@H]([C@H]3C[C@](C)([S+](C)[O-])CCC[C@@](C)(OC(=O)CCC)[C@@H]2O3)[C@](C)(O)[C@@H]1OC(C)=O (stereo partly drawn) [KLYSIMPLEXIN SULFOXIDE B] |  |  |  |  |  |  | Activity [7]: 18%; Activity [8]: inactive |
| CCCC(=O)O[C@]1(C)CCC[C@@](C)([S+](C)[O-])C[C@H]2O[C@@H]1[C@H]1[C@@H]2[C@](C)(OC(C)=O)CC[C@@H]1C(C)C (stereo partly drawn) [KLYSIMPLEXIN SULFOXIDE A] |  |  |  |  |  |  | Activity [7]: 8.8%; Activity [8]: inactive |
| C=C1C[C@H]2O[C@H]([C@@H]3[C@@H](C(C)C)[C@H](O)C[C@@](C)(OC(C)=O)[C@@H]32)[C@](C)(OC(=O)CCC)CC[C@@H]1OO [KLYSIMPLEXIN D] | Not Active | Not Active | Not Active | Not Active | Not Active | Not Active |  |
| CC(=O)O[C@]1(C)CC[C@H](C(C)C)[C@@H]2[C@H]1[C@H]1C[C@](C)(O)[C@@H](O)CC[C@@](C)(OC(C)=O)[C@@H]2O1 [KLYSIMPLEXIN G] | Not Active | Not Active | Not Active | Not Active | Not Active | Not Active |  |
| C=C1C[C@H]2O[C@H]([C@@H]3[C@@H](C(C)C)[C@H](O)C[C@@](C)(OC(C)=O)[C@@H]32)[C@](C)(OC(=O)CCC)CCC1=O [KLYSIMPLEXIN B] |  |  |  |  |  |  | pIC50 [1]: 5.41; pIC50 [2]: 5.19; pIC50 [3]: 5.19; pIC50 [4]: 5.11; pIC50 [5]: 5.37; pIC50 [6]: 4.82 |
| CCCC(=O)O[C@]1(C)CC[C@H](O)[C@@H](C)C[C@H]2O[C@@H]1[C@@H]1[C@@H](C(C)C)[C@H](O)C[C@@](C)(OC(C)=O)[C@@H]12 [KLYSIMPLEXIN A] | Not Active | Not Active | Not Active | Not Active | Not Active | Not Active |  |
| C=C1C[C@H]2O[C@H]([C@@H]3[C@@H](C(C)C)[C@H](O)C[C@@](C)(OC(C)=O)[C@@H]32)[C@](C)(OC(=O)CCC)CC[C@@H]1O [KLYSIMPLEXIN C] | Not Active | Not Active | Not Active | Not Active | Not Active | Not Active |  |
| CCCC(=O)O[C@H]1[C@H](C(C)C)[C@@H]2[C@@H]([C@H]3/C=C(/C)[C@@H](O)CC[C@@](C)(OC(=O)CCC)[C@@H]2O3)[C@](C)(O)[C@@H]1OC(C)=O [KLYSIMPLEXIN H] |  |  |  |  |  |  | pIC50 [1]: 4.96; pIC50 [2]: 5.00; pIC50 [3]: 5.00; pIC50 [4]: 4.89; pIC50 [5]: 5.29; pIC50 [6]: 5.10 |
| C=C1C[C@@H]2O[C@@H]([C@@H]3[C@H]2[C@@](C)(OC(C)=O)[C@H](OC(C)=O)C[C@H]3C(C)C)[C@@](C)(OC(C)=O)CC[C@H]1O [LABIATIN C] |  |  |  |  |  |  | pIC50 [9]: 4.80 |
| C=C1CC[C@H](C(C)C)[C@@H]2[C@H]1[C@H]1C[C@](C)(O)[C@@H](O)CC[C@@](C)(O)[C@@H]2O1 [SCLEROPHYTIN A] |  |  |  |  |  |  | pIC50 [5]: 4.24; pIC50 [10]: 8.52 |
| C=C1C[C@H]2O[C@H]([C@H]3[C@@H]2[C@](C)(OC(C)=O)[C@@H](OC(C)=O)C[C@@H]3C(C)C)[C@](C)(OC(C)=O)CC[C@@H]1O [LABIATIN E] |  |  |  |  |  |  | pIC50 [9]: 4.14 |
| C=C1C[C@H]2O[C@H]([C@@H]3[C@@H](C(C)C)[C@H](O)C[C@@](C)(OC(C)=O)[C@@H]32)[C@](C)(OC(C)=O)CC[C@@H]1O [KLYSIMPLEXIN E] | Not Active | Not Active | Not Active | Not Active | Not Active | Not Active |  |
